# Measurements taken from patent US12390446B2 (RESEARCH TRIANGLE INSTITUTE, priority 2017, dated 2025).
# Read-outs that look alike come from different tables or passages of the source.
# How the values were obtained:
# Format in all cases: cell-based
# [1] = molecular target: NPFF1 receptor (human NPFFR1-CHO cells) (Homo sapiens, UniProt Q9GZQ6); assay: Lance cAMP functional Ke assay, NPFF1; conditions: Table 5
# Procedure: (§1) Kinetic solubility and bidirectional MDCK-MDR1 permeability assays of the compounds were performed by Paraza Pharma Inc. (Montreal, Canada) according to their standard protocols.
# (§2) cAMP assay. Stable human NPFFR1-CHO (ES-491-C) and NPFFR2-CHO (ES-490-C) cell lines were purchased from PerkinElmer and used with the Lance@ Ultra kit (TRF0262) to detect cAMP accumulation in low volume 96-well plates. Stimulation buffer containing 1× HBSS, 5 mM HEPES, 0.1% BSA stabilizer, and 0.5 mM IBMX was prepared and titrated to 7.4 at room temperature.
# (§3) A single concentration of each test compound was prepared at 4× the desired final concentration in 2% DMSO/stimulation buffer and 5 μL was added to the assay plate.
# (§4) Cells were lifted with versene and spun at 270 g for 10 minutes. The cell pellet was resuspended in stimulation buffer and 4,000 cells (10 μL) were added to each well. After incubating for 30 min at RT, Eu-cAMP tracer and uLIGHT-anti-cAMP working solutions were added per the manufacturer's instructions. After incubation at RT for 1 hour, the TR-FRET signal (ex 337 nm) was read on a CLARIOstar multimode plate reader (BMG Biotech, Cary NC).
# (§5) Fluorescence values at 665 nm were plotted against the log of compound concentration using a nonlinear regression analysis to generate EC50 values (GraphPad Prism, GraphPad Software, Inc., San Diego CA). Ke values were calculated using the same equation as described in the calcium mobilization methods.
# [2] = molecular target: NPFF2 receptor (human NPFFR2-CHO cells) (Homo sapiens, UniProt Q9Y5X5); assay: Lance cAMP functional Ke assay, NPFF2; conditions: Table 5
# NPFF2 receptor (human NPFFR2-CHO cells), sequence (Q9Y5X5 whole entry): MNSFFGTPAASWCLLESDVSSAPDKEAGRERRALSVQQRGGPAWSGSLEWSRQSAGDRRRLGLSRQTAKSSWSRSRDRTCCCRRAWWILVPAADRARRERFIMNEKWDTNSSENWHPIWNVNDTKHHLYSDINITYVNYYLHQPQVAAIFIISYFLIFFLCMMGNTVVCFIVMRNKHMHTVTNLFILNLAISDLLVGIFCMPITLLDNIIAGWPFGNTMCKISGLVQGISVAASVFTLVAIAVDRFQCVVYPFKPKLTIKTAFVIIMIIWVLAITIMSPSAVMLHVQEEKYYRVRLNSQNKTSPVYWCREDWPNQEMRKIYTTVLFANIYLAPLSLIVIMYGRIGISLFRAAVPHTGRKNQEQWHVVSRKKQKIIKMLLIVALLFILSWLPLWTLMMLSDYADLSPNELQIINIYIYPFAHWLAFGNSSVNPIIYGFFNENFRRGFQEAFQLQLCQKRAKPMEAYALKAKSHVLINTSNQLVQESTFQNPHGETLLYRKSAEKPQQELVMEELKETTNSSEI
# Procedure: as §1, §2, §3, §4, §5
# [3] = molecular target: T1, NPFF2 receptor (human NPFFR2 in CHO-RD-HGA16 cells) (Homo sapiens, UniProt Q9Y5X5); assay: Calcium mobilization functional Ke assay, NPFF2; conditions: for Kb: read-out: NPFF2 Ke
# T1 construct: expressed in transfected cells
# T1 sequence (Q9Y5X5 whole entry): as above
# [4] = molecular target: T2, NPFF1 receptor (human NPFFR1 in CHO-RD-HGA16 cells) (Homo sapiens, UniProt Q9GZQ6); assay: Calcium mobilization functional Ke assay, NPFF1
# T2 construct: expressed in transfected cells
# T2 sequence (Q9GZQ6 whole entry): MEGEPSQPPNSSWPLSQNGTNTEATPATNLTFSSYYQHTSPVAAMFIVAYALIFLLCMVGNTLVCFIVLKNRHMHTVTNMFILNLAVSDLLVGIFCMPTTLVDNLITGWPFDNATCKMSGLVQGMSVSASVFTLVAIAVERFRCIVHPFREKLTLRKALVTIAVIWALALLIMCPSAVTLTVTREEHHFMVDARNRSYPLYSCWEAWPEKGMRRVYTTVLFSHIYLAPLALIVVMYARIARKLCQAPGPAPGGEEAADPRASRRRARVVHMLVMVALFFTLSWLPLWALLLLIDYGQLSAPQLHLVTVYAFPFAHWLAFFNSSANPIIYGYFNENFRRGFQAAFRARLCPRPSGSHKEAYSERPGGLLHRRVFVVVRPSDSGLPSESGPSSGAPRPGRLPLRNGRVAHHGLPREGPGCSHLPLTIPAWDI
# [5] = Table 3, mean ± SEM, read-out: NPFF1 Ke
# [6] = Table 1, footnote c: pre-incubation of antagonist and test compound 45 min or 1 hr
# [7] = Table 1, mean ± SEM, apparent dissociation constant vs NPFF, read-out: NPFF1 Ke
# [8] = Table 4, mean ± SEM, read-out: NPFF1 Ke
# [9] = Table 2, footnote c: pre-incubation 1 hr
# [10] = Table 2, 4-(4-methylthio)benzylamino series, mean ± SEM, read-out: NPFF1 Ke
# [11] = calcium mobilization assay, read-out: NPFF1 Ke
# [12] = Table 1, mean ± SEM, apparent dissociation constant vs NPFF
# NPFF1 receptor (human NPFFR1-CHO cells), sequence (Q9GZQ6 whole entry): as above
smiles,measurement,setting,value
"O=C(NCCc1ccc([N+](=O)[O-])cc1)[C@@H]1C[C@H](NCc2ccc(Cl)cc2)CN1Cc1ccccc1Cl [Compound 63, (2S,4S)-1-[(2-Chlorophenyl)methyl]-4-{[(4-chlorophenyl)methyl]amino}-N-[2-(4-nitrophenyl)ethyl]pyrrolidine-2-carboxamide]",Kb,[1],1550 nM
same,Kb,[2],1760 nM
same,Kb,"[3]; Table 3, mean ± SEM",1.86 µM
same,Kb,[4]; [5],680 ± 180 nM
same,Kb,"[4]; Table 5, read-out: Calcium mobilization assay Ke NPFF1",510 ± 180 nM
"COc1ccc(CN[C@H]2C[C@@H](C(=O)NCCC3CCCCC3)N(Cc3ccccc3Cl)C2)cc1 [Compound 21, (2S,4S)-1-[(2-Chlorophenyl)methyl]-N-(2-cyclohexylethyl)-4-{[(4-methoxyphenyl)methyl]amino}pyrrolidine-2-carboxamide]",Kb,[3]; [6],1.22 µM
same,Kb,[4]; [7],1120 nM
"COc1ccc(CN[C@H]2C[C@@H](C(=O)NCCC(C)C)N(Cc3ccccc3Cl)C2)cc1 [Compound 17, (2S,4S)-1-[(2-Chlorophenyl)methyl]-4-{[(4-methoxyphenyl)methyl]amino}-N-(3-methylbutyl)pyrrolidine-2-carboxamide]",Kb,[3]; [6],1.54 µM
same,Kb,[4]; [7],1320 nM
"COc1ccc(CN[C@H]2C[C@@H](C(=O)NCCc3ccccc3)N(Cc3cccc(Cl)c3)C2)cc1 [Compound 77, (2S,4S)-1-[(3-Chlorophenyl)methyl]-4-{[(4-methoxyphenyl)methyl]amino}-N-(2-phenylethyl)pyrrolidine-2-carboxamide]",Kb,"[3]; Table 4, mean ± SEM",4.1 µM
same,Kb,[4]; [8],580 ± 50 nM
same,preference / selectivity for NPFF1 over NPFF2,[4]; from calcium mobilization Ke values,> 10 fold
"COc1ccc(CN[C@H]2C[C@@H](C(=O)NCCc3ccccc3)N(Cc3ccc4ccccc4c3)C2)cc1 [Compound 87, (2S,4S)-4-{[(4-Methoxyphenyl)methyl]amino}-1-(naphthalen-2-ylmethyl)-N-(2-phenylethyl)pyrrolidine-2-carboxamide]",Kb,"[3]; Table 4, mean ± SEM",7.22 µM
same,Kb,[4]; [8],1720 nM
"CSc1ccc(CN[C@H]2C[C@@H](C(=O)NCCc3ccc(F)c(F)c3)N(Cc3ccccc3Cl)C2)cc1 [Compound 48, (2S,4S)-1-[(2-Chlorophenyl)methyl]-N-[2-(3,4-difluorophenyl)ethyl]-4-{[(4-(methylthio)phenyl)methyl]amino}pyrrolidine-2-carboxamide]",Kb,[3]; [9],0.88 ± 0.16 µM
same,Kb,[4]; [10],470 ± 60 nM
same,Kb,[4]; [11],470 nM
"CCC(C)NC(=O)[C@@H]1C[C@H](NCc2ccc(OC)cc2)CN1Cc1ccccc1Cl (stereo partly drawn) [Compound 14, (2S,4S)—N-(Butan-2-yl)-1-[(2-chlorophenyl)methyl]-4-{[(4-methoxyphenyl)methyl]amino}pyrrolidine-2-carboxamide]",Kb,[3]; [12],3.68 µM
same,Kb,[4]; [7],1500 nM
"COc1ccc(CN[C@H]2C[C@@H](C(=O)NCCc3ccccc3)N(Cc3ccc(C)cc3)C2)cc1 [Compound 83, (2S,4S)-4-{[(4-Methoxyphenyl)methyl]amino}-1-[(4-methylphenyl)methyl]-N-(2-phenylethyl)pyrrolidine-2-carboxamide]",Kb,[3],> 10 µM
same,Kb,[4]; read-out: NPFF1 Ke,1320 nM
"CCCN(CCC)C(=O)[C@@H]1C[C@H](NCc2ccc(OC)cc2)CN1Cc1ccccc1Cl [Compound 41, (2S,4S)-1-[(2-Chlorophenyl)methyl]-4-{[(4-methoxyphenyl)methyl]amino}-N,N-dipropylpyrrolidine-2-carboxamide]",Kb,[3]; [6],1.73 µM
same,Kb,"[4]; Table 1, footnote c: pre-incubation of antagonist and test compound 45 min or 1 hr, read-out: NPFF1 Ke",880 ± 120 nM
same,Kb,[4]; [11],880 nM
same,type of antagonism in curve-shift assays,"[4]; standard incubation, competitive profile with longer incubations",insurmountable antagonism
"COc1ccc(CN[C@H]2C[C@@H](C(=O)NCCc3ccccc3)N(Cc3ccc(N(C)C)cc3)C2)cc1 [Compound 85, (2S,4S)-1-{[4-(Dimethylamino)phenyl]methyl}-4-{[(4-methoxyphenyl)methyl]amino}-N-(2-phenylethyl)pyrrolidine-2-carboxamide]",Kb,"[3]; Table 4, mean ± SEM",> 10 µM
same,Kb,[4]; [8],3510 nM
"CCCCCCN[C@H]1C[C@@H](C(=O)NCCc2ccc([N+](=O)[O-])cc2)N(Cc2ccccc2Cl)C1 [Compound 55, (2S,4S)-1-[(2-Chlorophenyl)methyl]-4-(hexylamino)-N-[2-(4-nitrophenyl)ethyl]pyrrolidine-2-carboxamide]",Kb,"[3]; Table 3, mean ± SEM",4.47 µM
same,Kb,[4]; [5],2320 nM
"CCCCCNC(=O)[C@@H]1C[C@H](NCc2ccc(SC)cc2)CN1Cc1ccccc1Cl [Compound 44, (2S,4S)-1-[(2-Chlorophenyl)methyl]-4-{[(4-(methylthio)phenyl)methyl]amino}-N-pentylpyrrolidine-2-carboxamide]",Kb,[3]; [9],0.97 ± 0.03 µM
same,Kb,[4]; [10],360 ± 50 nM
same,Kb,[4]; [11],360 nM
"CCNC(=O)[C@@H]1C[C@H](NCc2ccc(OC)cc2)CN1Cc1ccccc1Cl [Compound 11, (2S,4S)-1-[(2-Chlorophenyl)methyl]-N-ethyl-4-{[(4-methoxyphenyl)methyl]amino}pyrrolidine-2-carboxamide]",Kb,[3]; [12],> 10 µM
same,NPFF2 antagonist activity,[3]; at 10 μM,inactive
same,Kb,[4]; [7],> 10000 nM
same,NPFF1 antagonist activity,[4]; at 10 μM,inactive
same,Kb,[4]; [11],> 10000 nM
"COc1ccc(CN[C@H]2C[C@@H](C(=O)NCCc3ccccc3)N(Cc3ccc(C#N)cc3)C2)cc1 [Compound 86, (2S,4S)-1-[(4-Cyanophenyl)methyl]-4-{[(4-methoxyphenyl)methyl]amino}-N-(2-phenylethyl)pyrrolidine-2-carboxamide]",Kb,"[3]; Table 4, mean ± SEM",> 10 µM
same,Kb,[4]; [8],3830 nM
"COc1ccc(CN[C@H]2C[C@@H](C(=O)NCCc3ccc(F)cc3)N(Cc3ccccc3Cl)C2)cc1 [Compound 35, (2S,4S)-1-[(2-Chlorophenyl)methyl]-N-[2-(4-fluorophenyl)ethyl]-4-{[(4-methoxyphenyl)methyl]amino}pyrrolidine-2-carboxamide]",Kb,[3]; [12],9.88 µM
same,Kb,[4]; [7],1130 nM
same,NPFF1 Ke,[4]; calcium mobilization assay,"1,130 nM"
"COc1ccc(CN[C@H]2C[C@@H](C(=O)NCCc3ccccc3)N(Cc3ccc(Cl)cc3)C2)cc1 [Compound 78, (2S,4S)-1-[(4-Chlorophenyl)methyl]-4-{[(4-methoxyphenyl)methyl]amino}-N-(2-phenylethyl)pyrrolidine-2-carboxamide]",Kb,"[3]; Table 4, mean ± SEM",4.85 µM
same,Kb,[4]; [8],2150 nM
"COc1ccc(CN[C@H]2C[C@@H](C(=O)NCCc3ccccc3)N(Cc3cccc(OC)c3)C2)cc1 [Compound 80, (2S,4S)-1-[(3-Methoxyphenyl)methyl]-4-{[(4-methoxyphenyl)methyl]amino}-N-(2-phenylethyl)pyrrolidine-2-carboxamide]",Kb,"[3]; Table 4, mean ± SEM",> 10 µM
same,Kb,[4]; [8],2460 nM
"COc1ccc(CN[C@H]2C[C@@H](C(=O)NC(C)(C)C)N(Cc3ccccc3Cl)C2)cc1 [Compound 15, (2S,4S)—N-tert-Butyl-1-[(2-chlorophenyl)methyl]-4-{[(4-methoxyphenyl)methyl]amino}pyrrolidine-2-carboxamide]",Kb,[3]; [6],1.26 µM
same,Kb,[4]; [7],1880 nM
"O=C(NCCc1ccc([N+](=O)[O-])cc1)[C@@H]1C[C@H](NCc2ccccc2)CN1Cc1ccccc1Cl [Compound 56, (2S,4S)-4-(Benzylamino)-1-[(2-chlorophenyl)methyl]-N-[2-(4-nitrophenyl)ethyl]pyrrolidine-2-carboxamide]",Kb,"[3]; Table 3, mean ± SEM",1.4 µM
same,Kb,[4]; [5],1230 nM
"CCCCCCN1C[C@@H](NCc2ccc(OC)cc2)C[C@H]1C(=O)NCCc1ccccc1 [Compound 74, (2S,4S)-1-Hexyl-4-{[(4-methoxyphenyl)methyl]amino}-N-(2-phenylethyl)pyrrolidine-2-carboxamide]",Kb,"[3]; Table 4, mean ± SEM",7.1 µM
same,Kb,[4]; [8],1450 nM
"CCNC(=O)[C@@H]1C[C@H](NCc2ccc(SC)cc2)CN1Cc1ccccc1Cl [Compound 43, (2S,4S)-1-[(2-Chlorophenyl)methyl]-N-ethyl-4-{[(4-(methylthio)phenyl)methyl]amino}pyrrolidine-2-carboxamide]",Kb,"[3]; Table 2, 4-(4-methylthio)benzylamino series, mean ± SEM",5.6 µM
same,Kb,[4]; [10],1080 nM
"COc1ccc(CN[C@H]2C[C@@H](C(=O)NCCc3ccccc3)N(CC3CCCCC3)C2)cc1 [Compound 75, (2S,4S)-1-(Cyclohexylmethyl)-4-{[(4-methoxyphenyl)methyl]amino}-N-(2-phenylethyl) pyrrolidine-2-carboxamide]",NPFF2 Ke,"[3]; Table 4, mean ± SEM","3,640 ± 830 nM"
same,NPFF1 Ke,"[4]; Table 4, mean ± SEM",650 ± 70 nM
